Experimental data: ChEMBL document CHEMBL5149978, “Structural insights of oxindole based kinase inhibitors as anticancer agents: Recent advances” (Eur J Med Chem, 2021)

How the values were obtained:
T47D = test: Anti-proliferative against human T-47D cells by MTT assay; format: functional, cell-based
MCF7 [1] = test: Anti-proliferative against human MCF-7 cells by MTT assay; format: functional, cell-based
HCT-116 [2] = test: Anti-proliferative against human HCT-116 cells by SRB colorimetric assay; format: functional, cell-based
[3] = target: Cyclin-dependent kinase 2 (Homo sapiens, UniProt P24941); test: Inhibition of CDK2 (unknown origin)
MDA-MB-231 [4] = test: Anti-proliferative against human MDA-MB-231 cells by SRB colorimetric assay; format: functional, cell-based
[5] = target: Apoptosis regulator Bcl-2 (Homo sapiens, UniProt P10415); test: Inhibition of BCL2 (unknown origin)
A549 [6] = test: Anti-proliferative against human A549 cells by SRB colorimetric assay; format: functional, cell-based
[7] = Inhibition of tyrosine kinase receptor (unknown origin) by ELISA; design: species or system Homo sapiens
HeLa [8] = test: Cytotoxicity against human HeLa cells measured after 48 hrs by MTS assay; format: functional, cell-based
MCF7 [9] = test: Anti-proliferative against human MCF-7 cells by SRB colorimetric assay; format: functional, cell-based
HCT-116 [10] = test: Antiproliferative against human HCT-116 cells assessed as reduction in cell proliferation incubated for 72 hrs by MTT assay; format: functional, cell-based; conditions: HCT-116, 72 h
[11] = target: Platelet-derived growth factor receptor beta (Homo sapiens, UniProt P09619); test: Inhibition of PDGFR beta (unknown origin)
SW-620 = test: Anti-proliferative against human SW620 cells incubated for 48 hrs by MTT assay; format: functional, cell-based; conditions: SW-620, 48 h
A549 [12] = test: Anti-proliferative against human A549 cells incubated for 48 hrs by MTT assay; format: functional, cell-based; conditions: A549, 48 h
[13] = target: Serine/threonine-protein kinase pim-1 (Homo sapiens, UniProt P11309); test: Inhibition of PIM1 (unknown origin)
HeLa [14] = test: Anti-proliferative against human HeLa cells incubated for 48 hrs by MTT assay; format: functional, cell-based
MDA-MB-231 [15] = test: Anti-proliferative activity against human MDA-MB-231 cells measured after 48 hrs by MTT assay; format: functional, cell-based; conditions: MDA-MB-231, 48 h

Sequence of Apoptosis regulator Bcl-2 (P10415 whole entry): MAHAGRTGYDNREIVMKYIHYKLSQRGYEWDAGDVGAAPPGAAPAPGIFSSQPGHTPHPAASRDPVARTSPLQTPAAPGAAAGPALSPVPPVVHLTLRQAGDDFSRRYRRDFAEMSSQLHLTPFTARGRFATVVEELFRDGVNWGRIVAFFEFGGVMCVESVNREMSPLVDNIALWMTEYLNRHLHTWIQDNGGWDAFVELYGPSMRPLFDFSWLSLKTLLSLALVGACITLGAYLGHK
Sequence of Platelet-derived growth factor receptor beta (P09619 whole entry): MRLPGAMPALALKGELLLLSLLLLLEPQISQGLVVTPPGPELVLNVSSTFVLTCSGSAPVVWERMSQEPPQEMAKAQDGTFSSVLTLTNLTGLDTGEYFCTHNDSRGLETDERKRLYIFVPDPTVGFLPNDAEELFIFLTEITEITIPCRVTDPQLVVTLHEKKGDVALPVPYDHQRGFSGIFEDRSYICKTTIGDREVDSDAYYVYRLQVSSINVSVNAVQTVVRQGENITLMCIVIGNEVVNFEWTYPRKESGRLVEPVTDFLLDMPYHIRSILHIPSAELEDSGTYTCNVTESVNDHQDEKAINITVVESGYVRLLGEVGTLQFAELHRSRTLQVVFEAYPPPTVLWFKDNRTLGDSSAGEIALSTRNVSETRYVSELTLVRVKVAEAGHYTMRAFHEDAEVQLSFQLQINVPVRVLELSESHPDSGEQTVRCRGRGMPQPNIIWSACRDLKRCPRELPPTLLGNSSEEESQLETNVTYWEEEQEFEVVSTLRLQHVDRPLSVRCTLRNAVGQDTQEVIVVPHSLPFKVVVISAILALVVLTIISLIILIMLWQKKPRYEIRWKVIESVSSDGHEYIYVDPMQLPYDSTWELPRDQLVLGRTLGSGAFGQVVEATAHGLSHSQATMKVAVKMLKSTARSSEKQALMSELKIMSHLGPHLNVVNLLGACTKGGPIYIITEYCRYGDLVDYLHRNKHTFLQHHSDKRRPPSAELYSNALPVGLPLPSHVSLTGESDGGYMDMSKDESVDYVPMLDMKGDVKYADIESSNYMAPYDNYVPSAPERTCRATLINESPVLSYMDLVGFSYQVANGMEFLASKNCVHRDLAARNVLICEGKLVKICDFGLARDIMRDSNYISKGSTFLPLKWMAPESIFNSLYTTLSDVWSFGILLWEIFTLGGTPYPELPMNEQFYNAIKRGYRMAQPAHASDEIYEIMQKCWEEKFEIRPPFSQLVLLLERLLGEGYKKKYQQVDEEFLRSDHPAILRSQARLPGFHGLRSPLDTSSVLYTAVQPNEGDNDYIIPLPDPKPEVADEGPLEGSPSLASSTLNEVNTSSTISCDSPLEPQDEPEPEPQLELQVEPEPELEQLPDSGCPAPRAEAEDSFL
Sequence of Serine/threonine-protein kinase pim-1 (P11309 whole entry): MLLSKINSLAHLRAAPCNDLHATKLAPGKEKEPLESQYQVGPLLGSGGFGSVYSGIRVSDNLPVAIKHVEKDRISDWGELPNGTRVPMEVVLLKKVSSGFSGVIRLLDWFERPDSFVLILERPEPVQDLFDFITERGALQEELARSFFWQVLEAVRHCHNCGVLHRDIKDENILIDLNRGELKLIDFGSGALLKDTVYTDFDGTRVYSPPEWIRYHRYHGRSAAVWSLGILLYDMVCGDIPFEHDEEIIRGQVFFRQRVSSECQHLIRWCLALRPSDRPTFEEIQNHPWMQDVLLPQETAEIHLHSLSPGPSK

SMILES: Cc1ccc2c(c1)/C(=N/NC(=O)c1cc3cc(Br)ccc3o1)C(=O)N2
- IC50 (T47D): 4530 nM
- IC50 (MCF7 [1]): 3450 nM

SMILES: CCCn1cc(/C=N/N=C2\C(=O)Nc3ccc(C)cc32)c2ccccc21
- IC50 (HCT-116 [2]): 2600 nM
- IC50 [3]: 850 nM
- IC50 (MDA-MB-231 [4]): 4700 nM
- IC50 [5]: 460 nM
- IC50 (A549 [6]): 7300 nM

SMILES: O=C(N/N=C1\C(=O)N(Cc2ccc(F)cc2)c2ccccc21)c1cc2ccccc2[nH]1
- IC50 (MDA-MB-231 [4]): 1030 nM

SMILES: O=C1Nc2ccccc2/C1=C/[S+]([O-])Cc1ccc(Br)cc1 (stereo unspecified)
- IC50 [7]: 1340 nM
- IC50 (HeLa [8]): 24000 nM

SMILES: Cc1ccc2c(c1)/C(=N/NC(=O)c1cc3ccccc3[nH]1)C(=O)N2
- IC50 (MCF7 [9]): 390 nM

SMILES: CCN(CC)CCN1Cc2[nH]c(/C=C3\C(=O)Nc4ccc(I)cc43)c(C)c2C1=O
- IC50 (HCT-116 [10]): 420 nM

SMILES: CCN(CC)CCN1Cc2[nH]c(/C=C3\C(=O)Nc4ccc(Br)cc43)c(C)c2C1=O
- IC50 (HCT-116 [10]): 1050 nM

SMILES: COc1ccc2c(c1)/C(=N\Nc1nnc3n1N=C(c1ccccc1)CS3)C(=O)N2
- IC50 [11]: 371 nM

SMILES: COc1cccc(C[S+]([O-])/C=C2\C(=O)Nc3ccccc32)c1 (stereo unspecified)
- IC50 [7]: 2230 nM
- IC50 (HeLa [8]): 22700 nM

SMILES: O=C1Nc2ccc(Br)cc2/C1=N/NC(=O)c1cc2cc(Br)ccc2o1
- IC50 (T47D): 3820 nM
- IC50 (MCF7 [1]): 3410 nM

SMILES: O=C(/C=C1\C(=O)Nc2ccccc21)/C=C/c1ccc(F)cc1
- IC50 (SW-620): 130 nM
- IC50 (A549 [12]): 2020 nM
- IC50 [13]: 5000 nM
- IC50 (HeLa [14]): 1530 nM

SMILES: N#CC1=C(c2ccccc2)Nc2c(c(-c3cccs3)nn2-c2ccccc2)C12C(=O)Nc1ccc(Br)cc12 (stereo unspecified)
- IC50 (MDA-MB-231 [15]): 6700 nM

SMILES: N#CC1=C(c2ccccc2)Nc2c(c(-c3cccs3)nn2-c2ccccc2)C12C(=O)Nc1ccc(Cl)cc12 (stereo unspecified)
- IC50 (MDA-MB-231 [15]): 6400 nM

SMILES: COc1ccc2c(c1)/C(=N/NC(=O)c1cc3cc(Br)ccc3o1)C(=O)N2
- IC50 (T47D): 7800 nM
- IC50 (MCF7 [1]): 2270 nM
